Laboratory results taken from PubChem BioAssay (NCI).
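Grown in 96-well plates, cells were treated for 48 hours with each compound at five concentrations. Insufficient inhibition: endpoint recorded as highest concentration tested. TGI: concentration producing complete growth inhibition.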

Assays:
Assay in all cases: NCI tumour cell line growth inhibition, 48 h
T-47D breast = test system: T-47D breast
SF-268 CNS = test system: SF-268 CNS
NCI-H23 lung = test system: NCI-H23 lung
SF-295 CNS = test system: SF-295 CNS
MDA-N = test system: MDA-N
M14 melanoma = test system: M14 melanoma
CAKI-1 renal = test system: CAKI-1 renal
LOX IMVI melanoma = test system: LOX IMVI melanoma
SK-OV-3 ovarian = test system: SK-OV-3 ovarian
OVCAR-4 ovarian = test system: OVCAR-4 ovarian
HOP-62 NSCLC = test system: HOP-62 NSCLC
SK-MEL-28 melanoma = test system: SK-MEL-28 melanoma
MOLT-4 leukemia = test system: MOLT-4 leukemia
SF-539 CNS = test system: SF-539 CNS
SR leukemia = test system: SR leukemia
NCI-H522 lung = test system: NCI-H522 lung
KM12 colon = test system: KM12 colon
K-562 leukemia = test system: K-562 leukemia
HCC-2998 colon = test system: HCC-2998 colon
NCI-H226 lung = test system: NCI-H226 lung
MDA-MB-231 breast = test system: MDA-MB-231 breast
DU-145 prostate = test system: DU-145 prostate
UO-31 renal = test system: UO-31 renal
HCT-15 colon = test system: HCT-15 colon
IGROV1 ovarian = test system: IGROV1 ovarian
NCI/ADR-RES ovarian = test system: NCI/ADR-RES ovarian
HCT-116 colon = test system: HCT-116 colon
UACC-257 melanoma = test system: UACC-257 melanoma
A549 NSCLC = test system: A549 NSCLC
RPMI-8226 leukemia = test system: RPMI-8226 leukemia
MDA-MB-435 = test system: MDA-MB-435
HT29 colon = test system: HT29 colon
SK-MEL-5 melanoma = test system: SK-MEL-5 melanoma
CCRF-CEM leukemia = test system: CCRF-CEM leukemia
MALME-3M melanoma = test system: MALME-3M melanoma
SNB-19 CNS = test system: SNB-19 CNS
HL-60(TB) leukemia = test system: HL-60(TB) leukemia
786-0 renal = test system: 786-0 renal
TK-10 renal = test system: TK-10 renal
BT-549 breast = test system: BT-549 breast
COLO 205 colon = test system: COLO 205 colon
U251 CNS = test system: U251 CNS
MCF7 breast = test system: MCF7 breast
SN12C renal = test system: SN12C renal
RXF 393 renal = test system: RXF 393 renal
SK-MEL-2 melanoma = test system: SK-MEL-2 melanoma
OVCAR-8 ovarian = test system: OVCAR-8 ovarian
HOP-92 NSCLC = test system: HOP-92 NSCLC
SW-620 colon = test system: SW-620 colon
OVCAR-5 ovarian = test system: OVCAR-5 ovarian
SNB-75 CNS = test system: SNB-75 CNS
PC-3 prostate = test system: PC-3 prostate
OVCAR-3 ovarian = test system: OVCAR-3 ovarian
NCI-H460 lung = test system: NCI-H460 lung
ACHN renal = test system: ACHN renal
EKVX NSCLC = test system: EKVX NSCLC

Question: What does the source list for `Cc1cc(C)nc(NS(=O)(=O)c2ccc(NNc3c4ccccc4nc4c(C(=O)Nc5ccc(S(=O)(=O)N=C(N)N)cc5)cccc34)cc2)n1`?
Answer: TGI (T-47D breast): > 100 µM; TGI (SF-268 CNS): > 100 µM; TGI (NCI-H23 lung): > 100 µM; TGI (SF-295 CNS): > 100 µM; TGI (MDA-N): > 100 µM; TGI (M14 melanoma): > 100 µM; TGI (CAKI-1 renal): > 100 µM; TGI (LOX IMVI melanoma): > 100 µM; TGI (SK-OV-3 ovarian): > 100 µM; TGI (OVCAR-4 ovarian): > 100 µM; TGI (HOP-62 NSCLC): > 100 µM; TGI (SK-MEL-28 melanoma): 85 µM; TGI (MOLT-4 leukemia): > 100 µM; TGI (SF-539 CNS): > 100 µM; TGI (SR leukemia): 76.1 µM; TGI (NCI-H522 lung): > 100 µM; TGI (KM12 colon): > 100 µM; TGI (K-562 leukemia): > 100 µM; TGI (HCC-2998 colon): > 100 µM; TGI (NCI-H226 lung): > 100 µM; TGI (MDA-MB-231 breast): > 100 µM; TGI (DU-145 prostate): > 100 µM; TGI (UO-31 renal): > 100 µM; TGI (HCT-15 colon): > 100 µM; TGI (IGROV1 ovarian): > 100 µM; TGI (NCI/ADR-RES ovarian): > 100 µM; TGI (HCT-116 colon): > 100 µM; TGI (UACC-257 melanoma): > 100 µM; TGI (A549 NSCLC): > 100 µM; TGI (RPMI-8226 leukemia): > 100 µM; TGI (MDA-MB-435): > 100 µM; TGI (HT29 colon): 77.7 µM; TGI (SK-MEL-5 melanoma): > 100 µM; TGI (CCRF-CEM leukemia): 98 µM; TGI (MALME-3M melanoma): > 100 µM; TGI (SNB-19 CNS): > 100 µM; TGI (HL-60(TB) leukemia): > 100 µM; TGI (786-0 renal): > 100 µM; TGI (TK-10 renal): > 100 µM; TGI (BT-549 breast): > 100 µM; TGI (COLO 205 colon): > 100 µM; TGI (U251 CNS): 96.8 µM; TGI (MCF7 breast): > 100 µM; TGI (SN12C renal): > 100 µM; TGI (RXF 393 renal): > 100 µM; TGI (SK-MEL-2 melanoma): 61.5 µM; TGI (OVCAR-8 ovarian): > 100 µM; TGI (HOP-92 NSCLC): > 100 µM; TGI (SW-620 colon): > 100 µM; TGI (OVCAR-5 ovarian): > 100 µM; TGI (SNB-75 CNS): > 100 µM; TGI (PC-3 prostate): > 100 µM; TGI (OVCAR-3 ovarian): 96.8 µM; TGI (NCI-H460 lung): > 100 µM; TGI (ACHN renal): > 100 µM; TGI (EKVX NSCLC): > 100 µM
